From ChEMBL document CHEMBL4138163, “DMXAA-pyranoxanthone hybrids enhance inhibition activities against human cancer cells with multi-target functions” (Eur J Med Chem, 2018) come the findings set out here.

Activity calls are given as the source filed them. The rule behind the calls is not given here.

The term IC50 denotes the midpoint of a concentration-inhibition curve.

The subject of test [1] is MCF7. As to the kind of experiment: Antiproliferative activity against human MCF7 cells co-treated with pyranoxanthone at 1:1 molar ratio after 24 hrs by MTT assay. The test is classed as functional, cell-based. The settings on record: MCF7, 24 h.
The subject of test [2] is MDA-MB-231. In words: Antiproliferative activity against human MDA-MB-231 cells co-treated with pyranoxanthone at 1:1 molar ratio after 24 hrs by MTT assay. The settings on record: MDA-MB-231, 24 h. The test is classed as functional, cell-based. (In general: Tetrazolium dyes change colour on reduction, which living cells bring about.)
The subject of test [3] is HepG2. In words: Antiproliferative activity against human HepG2 cells co-treated with pyranoxanthone at 1:1 molar ratio after 24 hrs by MTT assay. The test is classed as functional, cell-based. The settings on record: HepG2, 24 h.
Test [4] relates to K562. In words: Antiproliferative activity against human K562 cells co-treated with pyranoxanthone at 1:1 molar ratio after 24 hrs by MTT assay. Type of test: functional, cell-based. To be noted: K562, 24 h.
For test [5], the system named is L02. As to the kind of experiment: Antiproliferative activity against human HL-7702 cells after 24 hrs by MTT assay. Type of test: functional, cell-based. To be noted: L02, 24 h.
In test [6] the test system is NIH3T3. In words: Antiproliferative activity against mouse NIH/3T3 cells after 24 hrs by MTT assay. The test is classed as cell-based. To be noted: Mus musculus, NIH3T3, 24 h.
In test [7] the test system is HepG2. As to the kind of experiment: Induction of apoptosis in human HepG2 cells assessed as early apoptotic cells at 0.2 uM after 24 hrs by annexin-V/propidium iodide staining-based flow cytometric method relative to control. Type of test: functional.
Test [8] concerns HepG2. In words: Induction of apoptosis in human HepG2 cells assessed as late apoptotic cells at 0.2 uM after 24 hrs by annexin-V/propidium iodide staining-based flow cytometric method relative to control. Type of test: functional.
Test [9] concerns HepG2. As to the kind of experiment: Induction of apoptosis in human HepG2 cells assessed as early apoptotic cells co-treated with pyranoxanthone at 1:1 molar ratio after 24 hrs by annexin-V/propidium iodide staining-based flow cytometric method relative to control. Type of test: functional. (A flow cytometer gives signals particle by particle.)
Test [10] relates to HepG2. As to the kind of experiment: Induction of apoptosis in human HepG2 cells assessed as early apoptotic cells co-treated with DMXAA at 1:1 molar ratio after 24 hrs by annexin-V/propidium iodide staining-based flow cytometric method relative to control. Type of test: functional.
Test [11] concerns HepG2. As to the kind of experiment: Induction of apoptosis in human HepG2 cells assessed as increase in cleaved caspase-3 levels at 0.2 uM after 24 hrs by Western blot method. Type of test: functional, cell-based. (A western blot detects proteins with antibodies after separation by electrophoresis.)
Test [12] concerns HepG2. As to the kind of experiment: Induction of apoptosis in human HepG2 cells assessed as increase in cleaved caspase-9 levels at 0.2 uM after 24 hrs by Western blot method. The test is classed as functional, cell-based.
Test [13] has as its system HepG2. In words: Induction of apoptosis in human HepG2 cells assessed as increase in cleaved PARP levels at 0.2 uM after 24 hrs by Western blot method. The test is classed as functional, cell-based.
In test [14] the test system is HepG2. As to the kind of experiment: Induction of apoptosis in human HepG2 cells assessed as increase in cleaved caspase-3 levels co-treated with pyranoxanthone at 1:1 molar ratio after 24 hrs by Western blot method. Type of test: functional, cell-based.
Test [15] concerns HepG2. As to the kind of experiment: Induction of apoptosis in human HepG2 cells assessed as increase in cleaved caspase-9 levels co-treated with pyranoxanthone at 1:1 molar ratio after 24 hrs by Western blot method. Type of test: functional, cell-based.
Test [16] deals with HepG2. In words: Induction of apoptosis in human HepG2 cells assessed as increase in cleaved PARP levels co-treated with pyranoxanthone at 1:1 molar ratio after 24 hrs by Western blot method. The test is classed as functional, cell-based.
Test [17] addresses T1, Tumour suppressor p53/oncoprotein Mdm2 (Homo sapiens) (UniProt P04637+Q00987). In words: Inhibition of MDM2/p53 interaction in human HepG2 cells assessed as increase in p53 to MDM2 ratio co-treated with pyranoxanthone at 1:1 molar ratio after 24 hrs by Western blot method (reference value: 0.083). Type of test: cell-based.
In test [18] the test system is HepG2. As to the kind of experiment: Induction of apoptosis in human HepG2 cells assessed as downregulation of Bcl-xL expression co-treated with pyranoxanthone at 1:1 molar ratio after 24 hrs by Western blot method. Type of test: functional, cell-based.
The test system of test [19] is HepG2. In words: Induction of apoptosis in human HepG2 cells assessed as upregulation of Bid expression co-treated with pyranoxanthone at 1:1 molar ratio after 24 hrs by Western blot method. The test is classed as functional, cell-based.
The test system of test [20] is HepG2. As to the kind of experiment: Induction of apoptosis in human HepG2 cells assessed as ratio of Bax/Bcl-2 co-treated with pyranoxanthone at 1:1 molar ratio after 24 hrs by Western blot method (reference value: 0.23). Type of test: functional.
Test [21] concerns HepG2. As to the kind of experiment: Cell cycle arrest in human HepG2 cells assessed as accumulation at S phase at 0.2 uM after 28 hrs by propidium iodide staining-based flow cytometric method relative to control.
The subject of test [22] is HepG2. As to the kind of experiment: Cell cycle arrest in human HepG2 cells assessed as accumulation at S phase co-treated with pyranoxanthone at 1:1 molar ratio after 28 hrs by propidium iodide staining-based flow cytometric method.
Test [23] deals with MDA-MB-231. As to the kind of experiment: Antiproliferative activity against human MDA-MB-231 cells after 24 hrs by MTT assay. The test is classed as functional, cell-based. The settings on record: MDA-MB-231, 24 h.
For test [24], the system named is MCF7. As to the kind of experiment: Antiproliferative activity against human MCF7 cells after 24 hrs by MTT assay. Type of test: functional, cell-based. The settings on record: MCF7, 24 h.
In test [25] the test system is HepG2. As to the kind of experiment: Antiproliferative activity against human HepG2 cells after 24 hrs by MTT assay. Type of test: functional, cell-based. The settings on record: HepG2, 24 h.
Test [26] concerns K562. As to the kind of experiment: Antiproliferative activity against human K562 cells after 24 hrs by MTT assay. The test is classed as functional, cell-based. To be noted: K562, 24 h.
The test system of test [27] is MDA-MB-231. As to the kind of experiment: Antiproliferative activity against human MDA-MB-231 cells co-treated with DMXAA at 1:1 molar ratio after 24 hrs by MTT assay. Type of test: functional, cell-based. The settings on record: MDA-MB-231, 24 h.
Test [28] relates to MCF7. As to the kind of experiment: Antiproliferative activity against human MCF7 cells co-treated with DMXAA at 1:1 molar ratio after 24 hrs by MTT assay. Type of test: functional, cell-based. To be noted: MCF7, 24 h.
Test [29] concerns HepG2. As to the kind of experiment: Antiproliferative activity against human HepG2 cells co-treated with DMXAA at 1:1 molar ratio after 24 hrs by MTT assay. The test is classed as functional, cell-based. To be noted: HepG2, 24 h.
Test [30] deals with K562. As to the kind of experiment: Antiproliferative activity against human K562 cells co-treated with DMXAA at 1:1 molar ratio after 24 hrs by MTT assay. The test is classed as functional, cell-based. To be noted: K562, 24 h.
Test [31] concerns HepG2. In words: Induction of apoptosis in human HepG2 cells assessed as late apoptotic cells co-treated with pyranoxanthone at 1:1 molar ratio after 24 hrs by annexin-V/propidium iodide staining-based flow cytometric method relative to control. The test is classed as functional.
Test [32] deals with HepG2. As to the kind of experiment: Induction of apoptosis in human HepG2 cells assessed as late apoptotic cells co-treated with DMXAA at 1:1 molar ratio after 24 hrs by annexin-V/propidium iodide staining-based flow cytometric method relative to control. Type of test: functional.
The subject of test [33] is HepG2. In words: Induction of apoptosis in human HepG2 cells assessed as total apoptosis rate at 0.2 uM after 24 hrs by annexin-V/propidium iodide staining-based flow cytometric method relative to control. The test is classed as functional.
For test [34], the system named is HepG2. As to the kind of experiment: Induction of apoptosis in human HepG2 cells assessed as necrotic cells at 0.2 uM after 24 hrs by annexin-V/propidium iodide staining-based flow cytometric method relative to control. The test is classed as functional.
Test [35] has as its system HepG2. As to the kind of experiment: Induction of apoptosis in human HepG2 cells assessed as increase in cleaved caspase-3 levels co-treated with DMXAA at 1:1 molar ratio after 24 hrs by Western blot method. Type of test: functional, cell-based.
In test [36] the test system is HepG2. In words: Induction of apoptosis in human HepG2 cells assessed as increase in cleaved caspase-9 levels co-treated with DMXAA at 1:1 molar ratio after 24 hrs by Western blot method. Type of test: functional, cell-based.
For test [37], the system named is HepG2. In words: Induction of apoptosis in human HepG2 cells assessed as increase in cleaved PARP levels co-treated with DMXAA at 1:1 molar ratio after 24 hrs by Western blot method. The test is classed as functional, cell-based.
Test [38] concerns the target T1, Tumour suppressor p53/oncoprotein Mdm2 (Homo sapiens). As to the kind of experiment: Inhibition of MDM2/p53 interaction in human HepG2 cells assessed as increase in p53 to MDM2 ratio at 0.2 uM after 24 hrs by Western blot method (reference value: 0.083). The test is classed as cell-based.
The target is the same in test [39]. In words: Inhibition of MDM2/p53 interaction in human HepG2 cells assessed as increase in p53 to MDM2 ratio co-treated with DMXAA at 1:1 molar ratio after 24 hrs by Western blot method (reference value: 0.083). Type of test: cell-based.
The subject of test [40] is HepG2. In words: Induction of apoptosis in human HepG2 cells assessed as downregulation of Bcl-xL expression at 0.2 uM after 24 hrs by Western blot method. Type of test: functional, cell-based.
In test [41] the test system is HepG2. As to the kind of experiment: Induction of apoptosis in human HepG2 cells assessed as upregulation of Bid expression at 0.2 uM after 24 hrs by Western blot method. The test is classed as functional, cell-based.
Test [42] deals with HepG2. In words: Induction of apoptosis in human HepG2 cells assessed as downregulation of Bcl-xL expression co-treated with DMXAA at 1:1 molar ratio after 24 hrs by Western blot method. The test is classed as functional, cell-based.
Test [43] deals with HepG2. As to the kind of experiment: Induction of apoptosis in human HepG2 cells assessed as upregulation of Bid expression co-treated with DMXAA at 1:1 molar ratio after 24 hrs by Western blot method. The test is classed as functional, cell-based.
Test [44] concerns HepG2. As to the kind of experiment: Induction of apoptosis in human HepG2 cells assessed as ratio of Bax/Bcl-2 at 0.2 uM after 24 hrs by Western blot method (reference value: 0.23). The test is classed as functional.
Test [45] has as its system HepG2. In words: Induction of apoptosis in human HepG2 cells assessed as ratio of Bax/Bcl-2 co-treated with DMXAA at 1:1 molar ratio after 24 hrs by Western blot method (reference value: 0.23). The test is classed as functional.
Test [46] concerns HepG2. As to the kind of experiment: Cell cycle arrest in human HepG2 cells assessed as accumulation at S phase co-treated with DMXAA at 1:1 molar ratio after 28 hrs by propidium iodide staining-based flow cytometric method.

T1 sequence (P04637 whole entry, looked up): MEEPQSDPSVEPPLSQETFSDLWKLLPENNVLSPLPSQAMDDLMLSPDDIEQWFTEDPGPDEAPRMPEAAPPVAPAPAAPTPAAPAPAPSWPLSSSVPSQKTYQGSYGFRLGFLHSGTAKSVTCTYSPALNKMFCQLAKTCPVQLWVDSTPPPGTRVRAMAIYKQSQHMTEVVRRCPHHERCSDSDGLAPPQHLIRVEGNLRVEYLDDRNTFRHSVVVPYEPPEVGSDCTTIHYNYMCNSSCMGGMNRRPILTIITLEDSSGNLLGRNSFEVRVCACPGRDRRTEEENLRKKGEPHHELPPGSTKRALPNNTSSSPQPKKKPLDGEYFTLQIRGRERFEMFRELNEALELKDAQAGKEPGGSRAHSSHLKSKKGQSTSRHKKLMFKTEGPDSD
T1 sequence (Q00987 whole entry, looked up): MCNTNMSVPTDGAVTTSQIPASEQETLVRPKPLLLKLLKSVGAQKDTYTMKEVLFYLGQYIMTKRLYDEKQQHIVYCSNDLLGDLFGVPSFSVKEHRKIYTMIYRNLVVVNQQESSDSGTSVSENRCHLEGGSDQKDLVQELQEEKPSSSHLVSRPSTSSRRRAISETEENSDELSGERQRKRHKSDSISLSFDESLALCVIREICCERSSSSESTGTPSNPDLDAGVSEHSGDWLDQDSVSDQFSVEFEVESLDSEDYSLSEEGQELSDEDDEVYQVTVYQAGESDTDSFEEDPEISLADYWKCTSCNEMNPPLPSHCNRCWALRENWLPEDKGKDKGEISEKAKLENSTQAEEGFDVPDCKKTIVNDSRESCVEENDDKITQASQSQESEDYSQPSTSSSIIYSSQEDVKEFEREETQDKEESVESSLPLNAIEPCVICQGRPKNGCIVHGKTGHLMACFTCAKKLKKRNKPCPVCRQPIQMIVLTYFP

Regarding `Cc1ccc2c(=O)c3cccc(CC(=O)O)c3oc2c1C` [VADIMEZAN], the IC50 was determined as 11.9 µM in [1]; 12.1 µM in test [2]; 21.2 µM in test [3]; 19.1 µM in [4]; 101 µM in test [5]; 67.8 µM in [6]. Moreover, the Activity in test [7] is recorded as 13%; in test [8] it was 7%; in test [9], 15%; in test [10] it was 15%. The outcome in [11], in [12], in test [13], in test [14], in test [15] and in [16] was Active. Further, the result in test [18], in test [19], in test [21] and in test [22] was Active. Further, the fold change (FC) in test [17] was found to be 0.67. In addition, in [20], the Ratio was 0.58.
For `CC1(C)CCc2cc3c(=O)c4ccccc4oc3c(O)c2O1` [DIHYDRO-12-HYDROXY-2,2-DIMETHYL-2H,6H-PYRANO[3,2-B]XANTHEN-6-ONE], the IC50 in test [23] is 59.3 µM; in test [24], 102 µM; in [25] it was 40.3 µM; in test [26] it was 27.8 µM; in test [27], 12.1 µM; in test [28], 11.9 µM. The IC50 was 21.2 µM in test [29] and 19.1 µM in test [30]. Besides, the Activity in test [31] is listed as 46%; in [32], 46%; in [33], less than 10%; in test [34] it was less than 10%. The outcome in [11], in test [12], in [13], in test [35], in [36] and in test [37] was Active. Further, the result in test [40], in [41], in test [42], in test [43], in [21] and in test [46] was Active. The fold change (FC) worked out at 0.19 in test [38] and 0.67 in test [39]. Besides, the figures for the Ratio in [44] and in test [45] were 0.36 and 0.58, respectively.
For `Cc1ccc2c(=O)c3cccc(CC(=O)OCCCCCOc4c5c(cc6c(=O)c7ccccc7oc46)CCC(C)(C)O5)c3oc2c1C`, the IC50 in test [23] is 11.2 µM; in test [24], 8.72 µM; in test [25] it was 1.53 µM; in [26] it was 15 µM.
